According to article PMC3666979, “Eliciting Renal Failure in Mosquitoes with a Small-Molecule Inhibitor of Inward-Rectifying Potassium Channels” (PLoS ONE, 2013):
Marks after values point to notes of the source that are not given here.

Legend:
[1] = test system: principal cells of isolated Malpighian tubules; experiment: Two-electrode voltage clamp of principal cells in isolated Malpighian tubules; type: cell-based, Aedes aegypti; conditions: for Rpc (kΩ) / Vbl (mV): VU573 10 µM or barium 5 mM, means ± SEM
Description: The basolateral membrane voltage (Vbl) and input resistance (Rpc) of principal cells were measured in isolated Malpighian tubules using two-electrode voltage clamping, as described previously. In each experiment, a single principal cell near the distal (blind) end of the tubule was impaled with two glass microelectrodes: one measured Vbl and the other injected current (Im). The Rpc of the impaled cell was calculated from current-voltage plots that were generated via voltage clamping (see ref. [25] for details). After recording a steady-state Vbl and Rpc (control) from the impaled cell, either VU573 (10 µM) or BaCl2 (5 mM) was added to the peritubular bath. The resulting Vbl and Rpc (treatment) were measured again upon reaching a new steady-state (usually 1–2 min later).
(§1) Data were analyzed using Prism 5 for Windows (Graphpad Software) and Excel (Microsoft Corp). To compare the rates of fluid secretion among control, vehicle, VU573, and VU342 treatments, a one-way ANOVA was performed with a Newman-Keuls posttest. To compare the Vbl and Rpc values of principal cells between control and treatment periods a paired t-test was performed.

AeKir1 [2] = molecular target: T1, AeKir1 (Aedes aegypti, UniProt L0EQS9); experiment: Whole-cell patch clamp of AeKir1 expressed in T-REx-HEK-293 cells; type: cell-based; conditions: for IC50: AeKir1-mediated currents, T-REx-HEK-293 cells
T1 sequence (L0EQS9 entry or part of it): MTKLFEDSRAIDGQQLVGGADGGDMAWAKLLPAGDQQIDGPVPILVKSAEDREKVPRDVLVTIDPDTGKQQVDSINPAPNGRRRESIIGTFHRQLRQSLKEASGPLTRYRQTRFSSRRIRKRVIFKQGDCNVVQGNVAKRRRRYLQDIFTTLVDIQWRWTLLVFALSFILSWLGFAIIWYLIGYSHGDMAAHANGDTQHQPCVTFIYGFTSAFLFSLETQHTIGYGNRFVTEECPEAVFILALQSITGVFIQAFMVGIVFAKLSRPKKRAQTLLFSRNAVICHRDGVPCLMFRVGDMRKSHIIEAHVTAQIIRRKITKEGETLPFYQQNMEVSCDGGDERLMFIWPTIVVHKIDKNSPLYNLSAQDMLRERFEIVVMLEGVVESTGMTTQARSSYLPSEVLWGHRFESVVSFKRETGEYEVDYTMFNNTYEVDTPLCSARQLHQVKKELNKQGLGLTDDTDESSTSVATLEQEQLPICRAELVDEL
Description: T-REx-HEK293-AeKir1 cells were voltage clamped in the whole-cell configuration of the patch clamp technique after overnight induction with tetracycline (1 µg/ml). Patch electrodes were pulled from silanized 1.5 mm outer diameter borosilicate microhematocrit tubes using a Narishige PP-830 two-stage puller. Electrode resistance ranged from 2.5 to 3.5 MΩ when filled with the following intracellular solution (in mM): 135 KCl, 2 MgCl2, 1 EGTA, 10 HEPES free acid, 2 Na2ATP (Roche, Indianapolis, IN), pH 7.3, 275 mOsm. The standard bath solution contained (in mM): 135 NaCl, 5 KCl, 2 CaCl2, 1 MgCl2, 5 glucose, 10 HEPES free acid, pH 7.4, 290 mOsm. The high-K^+ bath contained (in mM): 90 NaCl, 50 KCl, 2 CaCl2, 1 MgCl2, 5 glucose, and 10 HEPES-free acid, pH 7.4, 290 mOsmol. Whole-cell currents were recorded under voltage-clamp conditions using an Axopatch 200B amplifier (Molecular Devices, Sunnyvale, CA). Electrical connections to the amplifier were made using Ag/AgCl wires and 3 M KCl/agar bridges. Electrophysiological data were collected at 5 kHz and filtered at 1 kHz. Data acquisition and analysis were performed using pClamp 9.2 software (Axon Instruments). After achieving stable whole-cell currents, VU573 or VU342 was applied intermittently or continuously for 2 to 10 min, followed by application of 2 mM BaCl2. All recordings were made at room temperature (20–23°C).

[3] = test system: isolated Malpighian tubules; experiment: Fluid secretion by isolated Malpighian tubules (Ramsay method); parameters: species or system Aedes aegypti; conditions: 10 µM in peritubular bath, after 2 hours, high-potassium Ringer
Description: Fluid secretion rates from isolated Malpighian tubules (Ae. aegypti) were measured in vitro using the method described in [25], which is modified from that of Ramsay. In brief, isolated tubules were bathed in a 50 µl drop of a mosquito Ringer solution with elevated K^+ (see composition below), which was then covered with light mineral oil. A glass hook was used to pull the open proximal end of the tubule into the mineral oil where fluid was secreted. The diameter of the droplet was measured to calculate the secreted volumes.
In one set of tubules, the initial spontaneous rate of fluid secretion was calculated during the first 30 min (control). In another set of tubules, the rates of fluid secretion were determined 2 h after adding one of the following to the peritubular bath: the vehicle (0.05% DMSO), VU573 (10 µM), or VU342 (10 µM). The Ringer solution consisted of the following in mM: 119.4 NaCl, 34 KCl, 25 HEPES, 1.8 NaHCO3, 1.7 CaCl2, and 1.0 MgSO4, pH 7.1.
as §1

[4] = test system: intact mosquitoes (Ae. aegypti); experiment: Urine excretion rate of intact mosquitoes after 900 nl HBS injection; type: in vivo, Aedes aegypti; conditions: 2 h
Description: Urine excretion rates from intact mosquitoes (Ae. aegypti) were measured using a method modified from the laboratory of Hansen. After anesthetizing mosquitoes on ice they were injected as described above with 900 nl of fluid (100 nl/s). The injected fluid was one of two HEPES-buffered saline (HBS) solutions containing 1.8% DMSO with 0.77 mM VU573 or 0.77 mM VU342. Vehicle controls received the respective HBS with DMSO alone. The Na^+-HBS consisted of the following in mM: 146 NaCl, 4.2 N-methyl-D-glucammonium (NMDG)-Cl, and 25 mM HEPES (pH 7.5). The K^+-HBS consisted of the following in mM: 10 mM NaCl, 75 mM KCl, 65.2 mM NMDG-Cl, and 25 mM HEPES (pH 7.5). After injection, mosquitoes were placed immediately in a graduated, packed-cell volume tube (MidSci, St. Louis, MO; 3 mosquitoes per tube) at room temperature. The mosquitoes were removed from the tubes with forceps after 2 h and the excreted urine was centrifuged into the graduated column of the tube for measurement. Uninjected control mosquitoes were handled exactly as above without the injection step. Data were analyzed using Prism 5 for Windows (Graphpad Software). To generate a dose-response curve for VU573, the doses (x-axis) were log transformed and then a non-linear curve was fitted to the data using the ‘log(agonist) vs. response’ algorithm. An ED50 was calculated from this curve. To compare 1) the incapacitating effects among the vehicle, VU573, and VU342 treatments, and 2) the rates of urine excretion among the control, vehicle, VU573, and VU342 treatments, one-way ANOVAs were performed with Newman-Keuls posttests. To compare the incapacitating effects between the vehicle and VU573 within each mosquito species, a paired t-test was used.

[5] = test system: adult female mosquitoes (Aedes aegypti); experiment: Mosquito toxicology: incapacitation 24 h after intrathoracic injection (69 nl); type: in vivo; conditions: for mosquitoes bloated (retained fluid) / % Incapacitated (flightless or dead): 69 nl of 10 mM in PBS/15% DMSO; for mosquitoes bloated (retained fluid): 24 h; for % Incapacitated (flightless or dead): within 24 hours
Description: (§2) Mosquitoes were first anesthetized on ice and then injected with 69 nl of fluid (see below) using a pulled-glass capillary attached to a nanoliter injector (Nanoject II, Drummond Scientific Company, Broomall, PA). The injected fluid was a sodium-based phosphate-buffered saline (Na^+-PBS) containing 15% DMSO and various concentrations of VU573 or VU342 to deliver the doses indicated in Figures 2A, 2C, and S3. The Na^+-PBS consisted of the following in mM: 137 NaCl, 2.7 KCl, 10 Na2HPO4, and 2 KH2PO4 (pH 7.5). After injection, the mosquitoes were placed in a small cage (10 females per cage) within a rearing chamber (28°C, 80% relative humidity, 12∶12 light∶dark) and allowed free access to a solution of 10% sucrose. The mosquitoes were observed 24 h after injection.
(§3) Data were analyzed using Prism 5 for Windows (Graphpad Software). To generate a dose-response curve for VU573, the doses (x-axis) were log transformed and then a non-linear curve was fitted to the data using the ‘log(agonist) vs. response’ algorithm. An ED50 was calculated from this curve. To compare 1) the incapacitating effects among the vehicle, VU573, and VU342 treatments, and 2) the rates of urine excretion among the control, vehicle, VU573, and VU342 treatments, one-way ANOVAs were performed with Newman-Keuls posttests. To compare the incapacitating effects between the vehicle and VU573 within each mosquito species, a paired t-test was used.

[6] = test system: adult female mosquitoes (Ae. aegypti); experiment: Mosquito mortality after 900 nl Na+- or K+-PBS injection; type: in vivo, Aedes aegypti
Description: A similar approach was used to determine the toxicity of VU573 after a stress to hemolymph Na^+ or K^+ homeostasis (Figure 2F). However, in these experiments each mosquito was injected with 900 nl of fluid (100 nl/s) and the mosquitoes were not given access to sucrose. The injected fluid was a Na^+-PBS or K^+-PBS containing 1.1% DMSO and 0.77 mM of VU573. Vehicle controls received the respective PBS with DMSO alone. The K^+-PBS consisted of the following in mM: 2.7 NaCl, 137 KCl, 2 Na2HPO4, and 10 KH2PO4 (pH 7.5).

AeKir1 [7] = molecular target: T1, AeKir1; experiment: Thallium (Tl+) flux assay of AeKir1 in T-REx-HEK-293 cells; type: cell-based; conditions: AeKir1-mediated Tl+ flux, means ± SEM
Description: Compound master antagonist plates were created by serial diluting compounds 1∶3 from 30 mM stocks in 100% DMSO using the BRAVO liquid handler (Agilent Technologies, Santa Clara, CA). Assay daughter plates were created using the ECHO 555 liquid hander (Labcyte, Sunnyvale, CA), transferring 240 nl from the master plate to the daughter plate for each well followed by addition of 40 µl of assay buffer resulting in antagonist compound concentration response curves starting at 200 µM (2× final concentration). […] Cell plates and daughter compound plates were loaded onto a kinetic imaging plate reader (FDSS 6000; Hamamatsu Corporation, Bridgewater, NJ). […] Appropriate baseline readings were taken (10 images at 1 Hz; excitation, 470±20 nm; emission, 540±30 nm) and 20 µl test compounds were added followed by 50 images at 1 Hz additional baseline. Following a 20 minute incubation period, baseline readings were taken for 10 seconds followed by addition of 10 µl of Tl^+ stimulus buffer. […] Data were analyzed using Excel (Microsoft Corp, Redmond, WA). […] The slope of the fluorescence increase beginning 5 s after Tl^+ addition and ending 15 s after Tl^+ addition was calculated. […] Potencies were calculated from fits using a four parameter logistic equation.

[8] = test system: adult female Anopheles gambiae; experiment: Mosquito toxicology: incapacitation 24 h after injection (69 nl); type: in vivo; conditions: 69 nl Na+-PBS with 10 mM
Description: as §2, §3
(§4) Supplementary file pone.0064905.s003.tif: Figure S3 Incapacitating effects of VU573 in three species of mosquitoes. Adult female mosquitoes were injected with Na^+- PBS (69 nl) containing the vehicle (15% DMSO) or VU573 (10 mM). ‘% Incapacitated’ refers to the proportion of mosquitoes that are flightless or dead within 24 h after injection. Values are means ± SEM (n = 4 independent trials of 10 mosquitoes). Statistical differences between vehicle and VU573-treated mosquitoes were determined by a paired t-test for each species. […]

[9] = test system: adult female Culex pipiens; experiment: as above; type: in vivo; conditions: 69 nl Na+-PBS with 10 mM
Description: as §2, §3, §4

[10] = test system: adult female Aedes albopictus; experiment: as above; type: in vivo; conditions: 69 nl Na+-PBS with 10 mM
Description: as §2, §3, §4

[11] = 900 nl K+-HBS containing 0.77 mM compound
[12] = 900 nl Na+-HBS containing 0.77 mM compound
[13] = 10 µM peritubular, change vs control
[14] = dose-response experiment, 24 h after injection

SMILES | Rpc (kΩ) [1] | Vbl (mV) [1] | IC50 (AeKir1 [2]) | rate of fluid secretion [3] | rate of urine excretion [4, 11] | rate of urine excretion [4, 12] | mosquitoes bloated (retained fluid) [5] | % Incapacitated (flightless or dead) [5] | further results
[Ba+2].[Cl-].[Cl-] [Barium, BaCl2, reference compound] | 322.8±31.0 ^d kΩ | −59.3±3.3 ^c mV | 10 µM |  |  |  |  |  | 
N=c1n(Cc2ccccc2)c2ccccc2n1CC(O)CN1CCOCC1 (centres unmarked) [VU342] |  |  | 112 ± 1.1 µM | no effect on the rate of fluid secretion | unaffected | 5.7 nL/min | none | less than 20% | times less potent than VU573 at inhibiting AeKir1 (AeKir1 [2]; ratio of IC50): 22 times; maximal inhibition of AeKir1 (AeKir1 [2]; requires 300 µM): ~65%
Cc1ccc(OCC(O)Cn2c(=N)n(Cc3ccccc3)c3ccccc32)cc1 (centres unmarked) [VU573] | 255.3±15.4 ^a kΩ | −52.4±4.5 ^b mV | 5.14 ± 1.2 µM | 0.26 nL/min | 0.73 nL/min | 2.14 nL/min | 10% | ~100% | mortality compared to vehicle ([6]; 900 nl K+-PBS with 0.77 mM): significantly increases mortality; mortality compared to vehicle ([6]; 900 nl Na+-PBS with 0.77 mM): does not significantly increase mortality; flightlessness ([6]; 900 nl Na+-PBS with 0.77 mM, within 24 hours): renders them flightless; hyperpolarization of basolateral membrane voltage (Vbl) [1, 13]: 7.0 mV; increase of input resistance (Rpc) [1, 13]: 5.7 kΩ; IC50 (AeKir1 [7]): 15 µM; proportion of incapacitated mosquitoes that were dead [5, 14]: 7.7%; proportion of incapacitated mosquitoes that were flightless [5, 14]: 92.3%; proportion of incapacitated mosquitoes with greatly distended abdomens (bloated) [5, 14]: 3.6%; ED50 (incapacitated: flightless or dead) ([5]; within 24 h after injection of 69 nl PBS/15% DMSO into hemolymph): 53.6 pmol; incapacitating effect [8]: incapacitates these mosquitoes; incapacitating effect [9]: incapacitates these mosquitoes; incapacitating effect [10]: incapacitates these mosquitoes
